Laboratory results taken from ChEMBL document CHEMBL3621155, “The status of the lysophosphatidic acid receptor type 1 (LPA1R)” (Medchemcomm, 2015).

Legend:
[1] = molecular target: T1, Lysophosphatidic acid receptor 3 (Homo sapiens, UniProt Q9UBY5); experiment: Agonist activity at human LPA3 receptor transfected in HEK293T cells after 30 mins by GTP[gamma-35S] binding assay; format: cell-based, HEK-293T
T1 sequence (Q9UBY5 whole entry): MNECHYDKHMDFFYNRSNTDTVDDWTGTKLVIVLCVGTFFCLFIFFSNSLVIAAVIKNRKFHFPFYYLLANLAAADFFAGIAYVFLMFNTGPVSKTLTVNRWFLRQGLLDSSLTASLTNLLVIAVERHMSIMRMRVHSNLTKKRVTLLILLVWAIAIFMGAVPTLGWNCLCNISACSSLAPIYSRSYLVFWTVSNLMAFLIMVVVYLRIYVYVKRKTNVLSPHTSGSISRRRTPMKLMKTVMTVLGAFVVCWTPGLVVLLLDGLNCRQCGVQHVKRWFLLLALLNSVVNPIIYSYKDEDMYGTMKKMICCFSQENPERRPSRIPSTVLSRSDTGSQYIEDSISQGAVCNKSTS

[2] = molecular target: T2, Lysophosphatidic acid receptor 1 (Homo sapiens, UniProt Q92633); experiment: Antagonist activity at human LPA1 receptor expressed in CHO cells assessed as inhibition of LPA-induced calcium mobilization preincubated for 30 mins followed by LPA induction by FLIPR Calcium 4 dye-based fluorometric analysis; format: functional, cell-based
[3] = molecular target: T1, Lysophosphatidic acid receptor 3; experiment: Antagonist activity at human LPA3 receptor expressed in CHO cells assessed as inhibition of LPA-induced calcium mobilization preincubated for 30 mins followed by LPA induction by FLIPR Calcium 4 dye-based fluorometric analysis; format: functional, cell-based
[4] = molecular target: T3, Lysophosphatidic acid receptor 2 (Homo sapiens, UniProt Q9HBW0); experiment: Antagonist activity at human LPA2 receptor expressed in rat B103 cells assessed as inhibition of LPA-induced calcium mobilization preincubated for 30 mins followed by LPA induction by FLIPR Calcium 4 dye-based fluorometric analysis; format: functional, cell-based
[5] = molecular target: T4, Lysophosphatidic acid receptor 4 (Homo sapiens, UniProt Q99677); experiment: Antagonist activity at human LPA4 receptor expressed in rat B103 cells assessed as inhibition of LPA-induced calcium mobilization preincubated for 30 mins followed by LPA induction by FLIPR Calcium 4 dye-based fluorometric analysis; format: functional, cell-based
[6] = molecular target: Lysophosphatidic acid receptor 5 (Homo sapiens, UniProt Q9H1C0); experiment: Antagonist activity at human LPA5 receptor expressed in rat B103 cells assessed as inhibition of LPA-induced calcium mobilization preincubated for 30 mins followed by LPA induction by FLIPR Calcium 4 dye-based fluorometric analysis; format: functional, cell-based
[7] = molecular target: Lysophosphatidic acid receptor 1 (Mus musculus, UniProt P61793); experiment: Antagonist activity at mouse LPA1 receptor transfected in HEK293T cells; format: cell-based, HEK-293T
[8] = molecular target: T1, Lysophosphatidic acid receptor 3; experiment: Antagonist activity at human LPA3 receptor transfected in HEK293T cells; format: cell-based, HEK-293T
[9] = molecular target: T2, Lysophosphatidic acid receptor 1; experiment: Agonist activity at human LPA1 receptor transfected in HEK293T cells after 30 mins by GTP[gamma-35S] binding assay; format: cell-based, HEK-293T
[10] = molecular target: T3, Lysophosphatidic acid receptor 2; experiment: Agonist activity at human LPA2 receptor transfected in HEK293T cells after 30 mins by GTP[gamma-35S] binding assay; format: cell-based, HEK-293T
[11] = molecular target: T1, Lysophosphatidic acid receptor 3; experiment: Agonist activity at human LPA3 receptor transfected in RH7777 cells assessed as mobilization of Ca2+ by fluorometric analysis; format: functional, cell-based
[12] = molecular target: T2, Lysophosphatidic acid receptor 1; experiment: Agonist activity at human LPA1 receptor transfected in RH7777 cells assessed as mobilization of Ca2+ by fluorometric analysis; format: functional, cell-based
[13] = molecular target: T2, Lysophosphatidic acid receptor 1; experiment: Antagonist activity at human LPA1 receptor expressed in RH7777 cells assessed as inhibition of LPA-induced calcium mobilization by Fura-2 AM probe-based fluorometric analysis; format: functional, cell-based
[14] = molecular target: T3, Lysophosphatidic acid receptor 2; experiment: Antagonist activity at human LPA2 receptor expressed in RH7777 cells assessed as inhibition of LPA-induced calcium mobilization by Fura-2 AM probe-based fluorometric analysis; format: functional, cell-based
[15] = molecular target: T1, Lysophosphatidic acid receptor 3; experiment: Antagonist activity at human LPA3 receptor expressed in RH7777 cells assessed as inhibition of LPA-induced calcium mobilization by Fura-2 AM probe-based fluorometric analysis; format: functional, cell-based
[16] = molecular target: T4, Lysophosphatidic acid receptor 4; experiment: Antagonist activity at human LPA4 receptor expressed in CHO cells assessed as inhibition of LPA-induced calcium mobilization by Fura-2 AM probe-based fluorometric analysis; format: functional, cell-based
[17] = molecular target: T3, Lysophosphatidic acid receptor 2; experiment: Antagonist activity at human LPA2 receptor expressed in CHO cells assessed as inhibition of LPA-induced calcium mobilization preincubated for 30 mins followed by LPA induction by FLIPR Calcium 4 dye-based fluorometric analysis; format: functional, cell-based
[18] = molecular target: T2, Lysophosphatidic acid receptor 1; experiment: Antagonist activity at human LPA1 receptor expressed in CHO cells assessed as inhibition of LPA-induced calcium mobilization preincubated with protein followed by LPA induction measured for 2 mins by Fluo-4 dye-based FLIPR assay; format: functional, cell-based
[19] = molecular target: Lysophosphatidic acid receptor 1/lysophosphatidic acid receptor 3 (Rattus norvegicus, UniProt Q8K5E0+P61794); experiment: Antagonist activity at LPA1/LPA3 receptor (unknown origin); format: protein assay, Homo sapiens
[20] = Displacement of [32P]diazirine-LPA from LPA receptor in mouse N1E-115 cells preincubated for 1 hr in dark followed by UV irradiation for 5 mins by scintillation counting analysis; format: cell-based

T3 sequence (Q9HBW0 whole entry): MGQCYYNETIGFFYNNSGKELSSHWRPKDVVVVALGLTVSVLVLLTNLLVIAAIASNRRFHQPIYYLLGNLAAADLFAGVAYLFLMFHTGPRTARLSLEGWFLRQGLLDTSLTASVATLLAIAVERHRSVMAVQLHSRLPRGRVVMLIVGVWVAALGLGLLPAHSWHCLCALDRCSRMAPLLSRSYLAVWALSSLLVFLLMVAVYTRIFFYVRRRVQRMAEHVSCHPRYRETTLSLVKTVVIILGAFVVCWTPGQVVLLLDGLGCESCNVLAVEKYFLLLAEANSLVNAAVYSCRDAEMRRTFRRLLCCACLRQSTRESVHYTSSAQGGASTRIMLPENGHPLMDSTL
T2 sequence (Q92633 whole entry): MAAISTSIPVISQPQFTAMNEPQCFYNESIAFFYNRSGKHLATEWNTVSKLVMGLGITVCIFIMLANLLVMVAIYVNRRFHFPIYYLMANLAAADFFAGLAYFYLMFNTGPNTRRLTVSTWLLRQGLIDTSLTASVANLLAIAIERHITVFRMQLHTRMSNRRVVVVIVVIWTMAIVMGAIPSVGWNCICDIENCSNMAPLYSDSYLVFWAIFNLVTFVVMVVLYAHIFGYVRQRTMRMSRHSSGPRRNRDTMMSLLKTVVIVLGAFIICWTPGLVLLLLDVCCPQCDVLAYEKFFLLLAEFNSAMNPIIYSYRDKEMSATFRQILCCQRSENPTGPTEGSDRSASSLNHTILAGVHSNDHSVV
T4 sequence (Q99677 whole entry): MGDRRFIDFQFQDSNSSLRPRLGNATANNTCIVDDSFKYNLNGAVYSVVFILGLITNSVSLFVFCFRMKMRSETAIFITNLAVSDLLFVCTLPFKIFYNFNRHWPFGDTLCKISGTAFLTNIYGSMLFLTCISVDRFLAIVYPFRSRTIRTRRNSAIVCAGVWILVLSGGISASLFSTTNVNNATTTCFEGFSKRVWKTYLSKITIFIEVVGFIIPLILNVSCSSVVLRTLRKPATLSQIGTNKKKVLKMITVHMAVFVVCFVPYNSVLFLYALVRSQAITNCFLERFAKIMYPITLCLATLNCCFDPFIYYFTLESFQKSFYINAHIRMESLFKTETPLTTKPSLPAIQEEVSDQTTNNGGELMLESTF
Lysophosphatidic acid receptor 5, sequence (Q9H1C0 whole entry): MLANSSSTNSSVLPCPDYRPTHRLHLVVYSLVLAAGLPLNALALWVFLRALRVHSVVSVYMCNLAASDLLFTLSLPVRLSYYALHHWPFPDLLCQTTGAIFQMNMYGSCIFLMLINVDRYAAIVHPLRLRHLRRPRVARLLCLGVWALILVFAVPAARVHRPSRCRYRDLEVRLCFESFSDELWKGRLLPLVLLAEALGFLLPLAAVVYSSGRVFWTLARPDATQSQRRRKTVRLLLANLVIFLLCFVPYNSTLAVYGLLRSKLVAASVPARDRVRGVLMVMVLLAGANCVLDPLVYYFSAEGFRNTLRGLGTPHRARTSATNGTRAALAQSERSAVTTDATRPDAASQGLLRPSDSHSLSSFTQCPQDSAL
Lysophosphatidic acid receptor 1 (Mus musculus, UniProt P61793), sequence (P61793 whole entry): as the sequence (Q92633 whole entry) above, with I4A, I8S, P22Q, H40Y, I61V, E193D, N194H, I269V, S331N, T335N counted along it

CCCCCCCC/C=C\CCCCCCCC(=O)OC[C@@H](COP(O)(O)=S)OC showed an EC50 [1] of 276 nM.

In the case of Cc1noc(-c2ccc(-c3ccc(CC(=O)O)cc3)cc2)c1NC(=O)O[C@H](C)c1ccccc1, the IC50 [2] is reported as 25 nM, the IC50 [3] is reported as > 8000 nM and the IC50 [4] is reported as > 8000 nM. The IC50 [5] was > 8000 nM and the IC50 [6] was > 8000 nM.

Molecule CCCCCCCC/C=C\CCCCCCCC(=O)N[C@H](COP(=O)(O)O)Cc1ccc(OCc2ccccc2)cc1 has an IC50 [7] of 5210 nM and an IC50 [8] of 6450 nM.

Molecule CCCCCCCC/C=C\CCCCCCCC(=O)NCCOP(O)(O)=S has an EC50 [9] of 40 nM and an EC50 [10] of 108 nM.

With CCCCCCCC/C=C\CCCCCCCC(=O)NCCSP(=O)(O)O the EC50 [9] was 318 nM.

Molecule CCCCCCCC/C=C\CCCCCCCCOC[C@H](COP(O)(O)=S)OC has an EC50 [11] of 62 nM and an EC50 [12] of 790 nM.

Work on CCCCCCCC/C=C\CCCCCCCCOC[C@@H](COP(O)(O)=S)OC yielded an EC50 [11] of 80 nM and an EC50 [12] of 571 nM.

CCCCCC/C=C\CCCCCCCC(=O)OC[C@@H](O)CC(Br)P(=O)(O)O (some centres not stated) gave an IC50 [13] of 1500 nM, an IC50 [14] of 1420 nM and an IC50 [15] of 1160 nM. The IC50 [16] was 266 nM.

For Cc1noc(-c2ccc(-c3ccc(CC(=O)O)cc3)cc2)c1NC(=O)O[C@H](C)c1ccccc1Cl, the IC50 [17] was 1700 nM, the IC50 [2] was 17 nM and the IC50 [3] was 1600 nM.

In the case of Cc1nsc(-c2ccc(-c3ccc(CC(=O)O)cc3)cc2)c1NC(=O)O[C@H](C)c1ccccc1Cl, the IC50 [2] is reported as < 50 nM and the IC50 [3] is reported as > 500 nM.

Molecule COc1ccc([C@@H](O)C(=O)N(CCCc2ccccc2)Cc2nc(C(=O)NS(C)(=O)=O)c(C)s2)c(F)c1 has an IC50 [18] of 6.6 nM.

In the case of COc1ccc(C(=O)NC2(C(=O)O)Cc3ccccc3C2)cc1OCCc1cccc(C)c1 [FIPAXALPARANT], the IC50 [19] is reported as < 100 nM.

Molecule CCCCCCCC/C=C\CCCCCCCC(=O)OC[C@@H](O)COP(=O)(O)O [LYSOPHOSPHATIDIC ACID] has an IC50 [20] of 10 nM.
